Numbered stars: 1 amine (or outer) side, 2 acyl side, 3 side chain; on linkers, the order of the positions; unused ones are H or OH. Bridge positions count the residues as written; N and C are the ends. Square brackets hold non-standard residues; d marks the D form. Peptide text beside a SMILES is read from it. * marks the point of attachment. hPhe(3,5-F2-4-CF3) = N[C@@H](CCc1cc(F)c(C(F)(F)F)c(F)c1)C(=O)O; hPhe(3-Cl-4-CF3) = N[C@@H](CCc1ccc(C(F)(F)F)c(Cl)c1)C(=O)O; NEtPhe(4-Cl) = CCN[C@@H](Cc1ccc(Cl)cc1)C(=O)O; NMePhe(4-CN) = CN[C@@H](Cc1ccc(C#N)cc1)C(=O)O; NEtPhe(4-Me) = CCN[C@@H](Cc1ccc(C)cc1)C(=O)O; NMePhe(4-Cl) = CN[C@@H](Cc1ccc(Cl)cc1)C(=O)O; NMePhe(2-F) = CN[C@@H](Cc1ccccc1F)C(=O)O; NMeGly(cPent) = CN[C@H](C(=O)O)C1CCCC1; Phe(3-I) = N[C@@H](Cc1cccc(I)c1)C(=O)O; X26 = CC(C)=CC[C@H](N[*:1])C(=O)[*:2]; NMeCha = CN[C@@H](CC1CCCCC1)C(=O)O; NMeAllylGly = C=CC[C@H](NC)C(=O)O; NMehLeu = CN[C@@H](CCC(C)C)C(=O)O; NMeChg = CN[C@H](C(=O)O)C1CCCCC1; NMeD = CN[C@@H](CC(=O)O)C(=O)O; NMeL = CN[C@@H](CC(C)C)C(=O)O; NMeV = CN[C@H](C(=O)O)C(C)C; d(β3hA) = C[C@@H](N)CC(=O)O; Morpholide = C1CN(*)CCO1; NMeA = CN[C@@H](C)C(=O)O; NMeAib = CNC(C)(C)C(=O)O; Nle = CCCC[C@H](N)C(=O)O; Piperidide = C1CCN(*)CC1; Ac5c = NC1(C(=O)O)CCCC1; Aze = O=C(O)[C@@H]1CCN1; Sar = CNCC(=O)O
System: Human pancreatic cancer cell line AsPC-1 (G12D mutation Kras)
Experiment: AsPC-1 cell growth inhibition (AsPC-1 CGI)
Format: cell-based
Conditions: read-out: AsPC-1 cell growth inhibition, 50% growth inhibitory concentration (IC50 value); 96 hours, CellTiter-Glo, values classified in ranges
Experimental: Test compounds were serially dilated with dimethyl sulfoxide, and 200 nL was then dispensed to a U-bottom 96-well plate using Labcyte Echo. […] The cell suspension was dispensed to a. plate containing a test compound at 100 μL per well and incubated at 37° C. in a 5% carbon dioxide gas incubator. 96 hours later, 80 μL of CellTiter-Glo (Promega) was added to each well and fluorescence was measured.

SMILES	IC50 [µM]
CCCC[C@@H]1NC(=O)[C@H](CCc2ccc(C(F)(F)F)c(Cl)c2)NC(=O)CN(C)C(=O)[C@H](Cc2ccc(Cl)cc2)N(CC)C(=O)CN(C)C(=O)CN(C)C(=O)[C@H]([C@@H](C)CC)NC(=O)[C@H](CC(C)C)N(C)C(=O)C[C@@H](C(=O)N2CCCCC2)N(C)C(=O)[C@H](CC(C)C)NC(=O)C(C)(C)N(C)C1=O [Compound 895] ([NMeL]I[Sar][Sar][NEtPhe(4-Cl)][Sar][hPhe(3-Cl-4-CF3)][Nle][NMeAib]L[NMeD]-Piperidide; lactam N-11)	> 0.5
CC[C@H](C)[C@@H]1NC(=O)[C@H](CC(C)C)N(C)C(=O)C[C@@H](C(=O)N2CCOCC2)N(C)C(=O)[C@H](C2CCCC2)N(C)C(=O)C2(CCCC2)NC(=O)[C@@H]2CCCN2C(=O)[C@H](CCc2cc(F)c(C(F)(F)F)c(F)c2)NC(=O)CN(C)C(=O)[C@H](Cc2ccc(C)cc2)N(CC)C(=O)[C@@H]2CCN2C(=O)[C@H](C)N(C)C1=O [Compound 1368] ([NMeL]I[NMeA][Aze][NEtPhe(4-Me)][Sar][hPhe(3,5-F2-4-CF3)]P[Ac5c][NMeGly(cPent)][NMeD]-Morpholide; lactam N-11)	≤ 0.02
CC[C@H](C)[C@@H]1NC(=O)[C@H](CCC(C)C)N(C)C(=O)C[C@@H](C(=O)N2CCOCC2)N(C)C(=O)[C@H](C2CCCC2)N(C)C(=O)C2(CCCC2)NC(=O)[C@@H]2CCCN2C(=O)[C@H](CCc2ccc(C(F)(F)F)c(Cl)c2)NC(=O)CN(C)C(=O)[C@H](C2CCCC2)N(C)C(=O)[C@@H]2CCN2C(=O)[C@H](C)N(C)C1=O [Compound 1237] ([NMehLeu]I[NMeA][Aze][NMeGly(cPent)][Sar][hPhe(3-Cl-4-CF3)]P[Ac5c][NMeGly(cPent)][NMeD]-Morpholide; lactam N-11)	≤ 0.02
CC[C@H](C)[C@@H]1NC(=O)[C@H](CC(C)C)N(C)C(=O)C[C@@H](C(=O)N(C)C)N(C)C(=O)[C@H](C2CCCC2)N(C)C(=O)C2(CCCC2)NC(=O)[C@@H](C)NC(=O)[C@H](CCc2ccc(C(F)(F)F)c(Cl)c2)NC(=O)CN(C)C(=O)[C@H](CC2CCCCC2)N(C)C(=O)[C@@H]2CCN2C(=O)[C@H](C)N(C)C1=O [Compound 191] ([NMeL]I[NMeA][Aze][NMeCha][Sar][hPhe(3-Cl-4-CF3)][dA][Ac5c][NMeGly(cPent)][NMeD]-NMe2; lactam N-11)	> 0.5
CC[C@H](C)[C@@H]1NC(=O)[C@H](CC(C)C)N(C)C(=O)C[C@@H](C)NC(=O)[C@H](C(C)C)N(C)C(=O)C2(CCCC2)NC(=O)[C@@H]2CCCN2C(=O)[C@H](CCc2ccc(C(F)(F)F)c(Cl)c2)NC(=O)CN(C)C(=O)[C@H](Cc2ccc(C#N)cc2)N(C)C(=O)CN(C)C(=O)CN(C)C1=O [Compound 564] (cyclo([Ac5c][NMeV][d(β3hA)][NMeL]I[Sar][Sar][NMePhe(4-CN)][Sar][hPhe(3-Cl-4-CF3)]P))	> 0.5
CC[C@H](C)[C@@H]1NC(=O)[C@H](C)N(C)C(=O)C[C@@H](C(=O)N2CCCCC2)N(C)C(=O)[C@H](C(C)C)N(C)C(=O)C2(CCCC2)NC(=O)[C@@H]2CCCN2C(=O)[C@H](CCc2ccc(C(F)(F)F)c(Cl)c2)NC(=O)[C@H]2CCCN2C(=O)[C@H](CC2CCCCC2)N(C)C(=O)CN(C)C(=O)CN(C)C1=O [Compound 135] ([NMeA]I[Sar][Sar][NMeCha][dP][hPhe(3-Cl-4-CF3)]P[Ac5c][NMeV][NMeD]-Piperidide; lactam N-11)	> 0.5
CC[C@H](C)[C@@H]1NC(=O)[C@H](CC(C)C)N(C)C(=O)C[C@@H](C)NC(=O)[C@H](C(C)C)N(C)C(=O)C2(CCCC2)NC(=O)[C@@H]2CCCN2C(=O)[C@H](CCc2ccc(C(F)(F)F)c(Cl)c2)NC(=O)CN(C)C(=O)[C@H](Cc2ccccc2F)N(C)C(=O)CN(C)C(=O)CN(C)C1=O [Compound 1585] (cyclo([Ac5c][NMeV][d(β3hA)][NMeL]I[Sar][Sar][NMePhe(2-F)][Sar][hPhe(3-Cl-4-CF3)]P))	> 0.5
CC[C@H](C)[C@@H]1NC(=O)[C@H](CC(C)C)N(C)C(=O)C[C@@H](C(=O)N2CCCCC2)N(C)C(=O)[C@H](CC(C)C)NC(=O)C(C)(C)N(C)C(=O)[C@H](CC=C(C)C)NC(=O)[C@H](Cc2cccc(I)c2)NC(=O)CN(C)C(=O)[C@H](Cc2ccc(Cl)cc2)N(C)C(=O)[C@@H]2CCN2C(=O)[C@H](C)N(C)C1=O [Compound 1419] ([NMeL]I[NMeA][Aze][NMePhe(4-Cl)][Sar][Phe(3-I)][X26][NMeAib]L[NMeD]-Piperidide; lactam N-11)	> 0.5
C=CC[C@H]1C(=O)NC2(CCCC2)C(=O)N(C)[C@@H](C2CCCCC2)C(=O)N(C)[C@H](C(=O)N2CCCCC2)CC(=O)N(C)[C@@H](CC(C)C)C(=O)N[C@@H]([C@@H](C)CC)C(=O)N(C)CC(=O)N(C)CC(=O)N(C)[C@@H](CC2CCCCC2)C(=O)N(C)CC(=O)N[C@@H](CCc2ccc(C(F)(F)F)c(Cl)c2)C(=O)N1C [Compound 1449] ([NMeL]I[Sar][Sar][NMeCha][Sar][hPhe(3-Cl-4-CF3)][NMeAllylGly][Ac5c][NMeChg][NMeD]-Piperidide; lactam N-11 (inferred); C-terminus assumed)	> 0.5
CC[C@H](C)[C@@H]1NC(=O)[C@H](CC(C)C)N(C)C(=O)C[C@@H](C(=O)N2CCCCC2)N(C)C(=O)[C@H](C2CCCCC2)N(C)C(=O)C2(CCCC2)NC(=O)[C@@H]2CCCN2C(=O)[C@H](CCc2ccc(C(F)(F)F)c(Cl)c2)NC(=O)CN(C)C(=O)[C@H](CC2CCCCC2)N(C)C(=O)[C@H](C)N(C)C(=O)CN(C)C1=O [Compound 1186] ([NMeL]I[Sar][NMeA][NMeCha][Sar][hPhe(3-Cl-4-CF3)]P[Ac5c][NMeChg][NMeD]-Piperidide; lactam N-11)	> 0.5

Source: patent US20240148821A1, “PHARMACEUTICAL USE OF CYCLIC PEPTIDE COMPOUND” (CHUGAI SEIYAKU KABUSHIKI KAISHA, priority 2021, published 2024)
